Assay results taken from US10538555B2, “Macrocyclic inhibitors of the PD-1/PD-L1 and CD80(B7-1)/PD-L1 protein/protein interactions” (BRISTOL-MYERS SQUIBB COMPANY, priority 2014, dated 2020).
*1 amine or outer side, *2 acyl side, *3 side chain or, on linkers, in order; H or OH if unused. Where a SMILES comes first, the peptide text is derived from it. Bridges are numbered along the chain shown (N, C = ends). [ ]: non-standard residue; d: D form. ξ: configuration not given here. Trp(1-CH2COOH) = N[C@@H](Cc1cn(CC(=O)O)c2ccccc12)C(=O)O; Trp(βS-Me) = C[C@@H](c1c[nH]c2ccccc12)[C@H](N)C(=O)O; Phe(3,4,5-F3) = N[C@@H](Cc1cc(F)c(F)c(F)c1)C(=O)O; NMePhe(4-F) = CN[C@@H](Cc1ccc(F)cc1)C(=O)O; Phe(4-CN) = N#Cc1ccc(C[C@H](N)C(=O)O)cc1; Phe(4-F) = N[C@@H](Cc1ccc(F)cc1)C(=O)O; d(cisHyp) = O=C(O)[C@H]1C[C@@H](O)CN1; NMeY = CN[C@@H](Cc1ccc(O)cc1)C(=O)O; Hyp = O=C(O)[C@@H]1C[C@@H](O)CN1; NMeF = CN[C@@H](Cc1ccccc1)C(=O)O; X1 = O=C([C@H]1COCCN1[*:1])[*:2]; NMeE = CN[C@@H](CCC(=O)O)C(=O)O; NMehSer = CN[C@@H](CCO)C(=O)O; NMeNle = CCCC[C@H](NC)C(=O)O; dNle = CCCC[C@@H](N)C(=O)O; hSer = N[C@@H](CCO)C(=O)O; NMeA = CN[C@@H](C)C(=O)O; Orn = NCCC[C@H](N)C(=O)O; Dab = NCC[C@H](N)C(=O)O; dAze = O=C(O)[C@H]1CCN1; Dap = NC[C@H](N)C(=O)O; ξC = NC(CS)C(=O)O

Molecular target: T1, Human PD-L1/PD-1 (Homo sapiens, UniProt Q9NZQ7)
T1 construct: TVMV protease cleavage site (C); made in house; host or cells: HEK293T cells
T1 sequence (Q9NZQ7 with tags, fused parts or gaps): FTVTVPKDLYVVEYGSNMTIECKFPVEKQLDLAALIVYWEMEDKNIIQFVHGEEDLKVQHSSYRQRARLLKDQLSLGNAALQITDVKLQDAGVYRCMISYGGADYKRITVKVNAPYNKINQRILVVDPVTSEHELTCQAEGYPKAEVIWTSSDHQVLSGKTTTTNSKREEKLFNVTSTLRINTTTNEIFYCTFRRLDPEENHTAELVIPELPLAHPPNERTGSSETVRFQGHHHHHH
Assay: HTRF Human PD-L1/PD-1 binding assay (PD-1-Ig/PD-L1-His)
Conditions: PD-L1-His 10 nM, PD-1-Ig 20 nM; class symbol; read-out: HTRF Human PD-L1/PD-1 Binding Assay IC50 Range
How it was run: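 HTRF competition using HEK293T-expressed human PD-1(25-167)-Ig at 20 nM and PD-L1(18-239)-His at 10 nM, compound incubated first with PD-L1 for 15 min, then with PD-1 for 15 min. Signal read as 665/620 nm ratio 30 min after adding Eu anti-Ig and APC anti-His antibodies.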

Compound | IC50
CCCC[C@H]1NC(=O)[C@H](Cc2c[nH]c3ccccc23)NC(=O)[C@H](CO)NC(=O)[C@H](Cc2c[nH]c3ccccc23)NC(=O)[C@@H]2C[C@@H](O)CN2C(=O)[C@H](CCC(N)=O)NC(=O)[C@H](Cc2cnc[nH]2)NC(=O)[C@@H]2CCCN2C(=O)[C@H](CC(N)=O)NC(=O)[C@H](C)N(C)C(=O)[C@H](Cc2ccc(O)cc2)NC(=O)CSCC(C(=O)NCC(N)=O)NC(=O)[C@H](CCCNC(=N)N)NC(=O)[C@H](CCCC)N(C)C1=O (stereo partly drawn) [Example 10126] ({CH2CO}-Y[NMeA]NPHQ[Hyp]WSW[dNle][NMeNle]R[ξC]G-NH2; thioether N-14) | 1000 to 10000 nM
CCCC[C@H]1C(=O)N(C)[C@@H](CCCC)C(=O)N[C@@H](CC(C)C)C(=O)N[C@H](C(=O)NCC(N)=O)CSCC(=O)N[C@@H](Cc2ccc(O)cc2)C(=O)N(C)[C@@H](C)C(=O)N[C@@H](CC(=O)O)C(=O)N2CCC[C@H]2C(=O)N[C@@H](Cc2cnc[nH]2)C(=O)N[C@@H](CCCCN)C(=O)N2C[C@H](O)C[C@H]2C(=O)N[C@@H](Cc2c[nH]c3ccccc23)C(=O)N[C@@H](CCCCN)C(=O)N[C@@H](Cc2cn(CC(=O)O)c3ccccc23)C(=O)N1C [Example 6156] ({CH2CO}-Y[NMeA]DPHK[Hyp]WK[Trp(1-CH2COOH)][NMeNle][NMeNle]LCG-NH2; thioether N-14) | 1 to 9.9 nM
CCCC[C@H]1C(=O)N[C@@H](CCC(=O)O)C(=O)N[C@H](C(=O)NCC(N)=O)CSCC(=O)N[C@@H](Cc2ccc(O)cc2)C(=O)N(C)[C@@H](C)C(=O)N[C@@H](CC(N)=O)C(=O)N2CCC[C@H]2C(=O)N[C@@H](Cc2c[nH]cn2)C(=O)N[C@@H](CCC(N)=O)C(=O)N2C[C@H](O)C[C@H]2C(=O)N[C@@H](Cc2c[nH]c3ccccc23)C(=O)N[C@@H](CO)C(=O)N[C@@H](Cc2c[nH]c3ccccc23)C(=O)N(C)[C@@H](CCOC)C(=O)N1C [Example 10141] ({CH2CO}-Y[NMeA]NPHQ[Hyp]WSW[NMehSer](Me)[NMeNle]ECG-NH2; thioether N-14) | 10 to 99.9 nM
CCCC[C@H]1C(=O)N2C[C@H](O)C[C@@H]2C(=O)N[C@@H](CC(=O)O)C(=O)N[C@@H](C(C)C)C(=O)N(C)[C@@H](Cc2ccccc2)C(=O)N[C@@H](Cc2ccc(O)cc2)C(=O)N2CCOC[C@@H]2C(=O)N[C@@H](Cc2c[nH]c3ccccc23)C(=O)N[C@@H](Cc2ccc(O)cc2)C(=O)N[C@@H](CC(C)C)C(=O)N[C@H](C(=O)NCC(N)=O)CSCC(=O)N[C@@H](Cc2cc(F)c(F)c(F)c2)C(=O)N(C)[C@@H](CCC(=O)O)C(=O)N1C [Example 10177] ({CH2CO}-[Phe(3,4,5-F3)][NMeE][NMeNle][d(cisHyp)]DV[NMeF]Y[X1]WYLCG-NH2; thioether N-13) | 10 to 99.9 nM
CCCC[C@H]1C(=O)N[C@@H](CC(N)=O)C(=O)N2CCC[C@H]2C(=O)N[C@@H](Cc2c[nH]cn2)C(=O)N[C@@H](CCC(N)=O)C(=O)N2C[C@H](O)C[C@H]2C(=O)N[C@@H]([C@@H](C)c2c[nH]c3ccccc23)C(=O)N[C@@H](CO)C(=O)N[C@@H](Cc2c[nH]c3ccccc23)C(=O)N(C)[C@@H](C)C(=O)N(C)[C@@H](C)C(=O)N[C@@H](CC(C)C)C(=O)N[C@H](C(=O)NCC(N)=O)CSCC(=O)N[C@@H](Cc2ccc(O)cc2)C(=O)N1C [Example 10536] ({CH2CO}-Y[NMeNle]NPHQ[Hyp][Trp(βS-Me)]SW[NMeA][NMeA]LCG-NH2; thioether N-14) | 1000 to 10000 nM
CCCC[C@H]1C(=O)N[C@@H](CC(N)=O)C(=O)N2CCC[C@H]2C(=O)N[C@@H](CO)C(=O)N[C@@H](CCO)C(=O)N2CCC[C@H]2C(=O)N[C@@H](Cc2c[nH]c3ccccc23)C(=O)N[C@@H](CCN)C(=O)N[C@@H](Cc2c[nH]c3ccccc23)C(=O)N(C)[C@@H](C)C(=O)N(C)[C@@H](C)C(=O)N[C@@H](CCCNC(=N)N)C(=O)NC(C(=O)NCC(N)=O)CSCC(=O)N[C@@H](Cc2ccc(O)cc2)C(=O)N1C (stereo partly drawn) [Example 10203] ({CH2CO}-Y[NMeNle]NPS[hSer]PW[Dab]W[NMeA][NMeA]R[ξC]G-NH2; thioether N-14) | 1000 to 10000 nM
CCCC[C@H]1C(=O)N(C)CC(=O)N[C@@H](CC(=O)O)C(=O)NC(C(C)c2ccccc2)C(=O)N(C)[C@@H](Cc2ccccc2)C(=O)N[C@@H](Cc2ccc(O)cc2)C(=O)N(C)CC(=O)N[C@@H](Cc2c[nH]c3ccccc23)C(=O)N[C@@H](Cc2ccc(O)cc2)C(=O)N[C@@H](CC(C)C)C(=O)N[C@H](C(=O)NCC(N)=O)CSCC(=O)N[C@@H](Cc2ccccc2)C(=O)N(C)[C@@H](Cc2ccccc2)C(=O)N1C (single isomer, unassigned) [Example 3230-C] | 100 to 990 nM
CCCC[C@H]1C(=O)N2C[C@H](O)C[C@@H]2C(=O)N[C@@H](CC(=O)O)C(=O)N[C@@H](C(C)C)C(=O)N(C)[C@@H](Cc2ccccc2)C(=O)N[C@@H](Cc2ccc(O)cc2)C(=O)N2C[C@H](O)C[C@@H]2C(=O)N[C@@H](Cc2c[nH]c3ccccc23)C(=O)N[C@@H](Cc2ccc(O)cc2)C(=O)N[C@@H](CCC(=O)O)C(=O)N[C@H](C(=O)NCC(N)=O)CSCC(=O)N[C@@H](Cc2cc(F)c(F)c(F)c2)C(=O)N(C)[C@@H](Cc2ccccc2)C(=O)N1C [Example 9326] ({CH2CO}-[Phe(3,4,5-F3)][NMeF][NMeNle][d(cisHyp)]DV[NMeF]Y[d(cisHyp)]WYECG-NH2; thioether N-13) | 10 to 99.9 nM
CCCC[C@H]1C(=O)N2CCC[C@@H]2C(=O)N[C@@H](CC(=O)O)C(=O)N[C@@H](C(C)C)C(=O)N(C)[C@@H](Cc2ccccc2)C(=O)N[C@@H](CCN)C(=O)N2CCC[C@@H]2C(=O)N[C@@H](Cc2c[nH]c3ccccc23)C(=O)N[C@@H](Cc2ccc(O)cc2)C(=O)N[C@@H](CC(C)C)C(=O)N[C@H](C(=O)NCC(N)=O)CSCC(=O)N[C@@H](Cc2ccc(F)cc2)C(=O)N(C)[C@@H](Cc2ccccc2)C(=O)N1C [Example 10105] ({CH2CO}-[Phe(4-F)][NMeF][NMeNle][dP]DV[NMeF][Dab][dP]WYLCG-NH2; thioether N-13) | 1 to 9.9 nM
CCCC[C@H]1C(=O)N2C[C@H](O)C[C@@H]2C(=O)N[C@@H](CC(=O)O)C(=O)N[C@@H](C(C)C)C(=O)N(C)[C@@H](Cc2ccccc2)C(=O)N[C@@H](CCC(=O)O)C(=O)N2CC[C@@H]2C(=O)N[C@@H](Cc2c[nH]c3ccccc23)C(=O)N[C@@H](Cc2ccc(O)cc2)C(=O)N[C@@H](CCCN)C(=O)N[C@H](C(=O)NCC(N)=O)CSCC(=O)N[C@@H](Cc2cc(F)c(F)c(F)c2)C(=O)N(C)[C@@H](Cc2ccccc2)C(=O)N1C [Example 3644] ({CH2CO}-[Phe(3,4,5-F3)][NMeF][NMeNle][d(cisHyp)]DV[NMeF]E[dAze]WY[Orn]CG-NH2; thioether N-13) | 1 to 9.9 nM
CCCC[C@H]1C(=O)N2CCOC[C@@H]2C(=O)N[C@@H](CC(=O)O)C(=O)N[C@@H](C(C)C)C(=O)N(C)[C@@H](Cc2ccccc2)C(=O)N[C@@H](CCN)C(=O)N2CCOC[C@@H]2C(=O)N[C@@H](Cc2c[nH]c3ccccc23)C(=O)N[C@@H](Cc2ccc(O)cc2)C(=O)N[C@@H](CCC(=O)O)C(=O)N[C@H](C(=O)NCC(N)=O)CSCC(=O)N[C@@H](Cc2cc(F)c(F)c(F)c2)C(=O)N(C)[C@@H](Cc2ccc(O)cc2)C(=O)N1C [Example 10628] ({CH2CO}-[Phe(3,4,5-F3)][NMeY][NMeNle][X1]DV[NMeF][Dab][X1]WYECG-NH2; thioether N-13) | 10 to 99.9 nM
CCCC[C@H]1C(=O)N(C)[C@@H](CCCC)C(=O)N[C@@H](CCCNC(=N)N)C(=O)NC(C(=O)NCC(N)=O)CSCC(=O)N[C@@H](Cc2ccc(O)cc2)C(=O)N(C)[C@@H](C)C(=O)N[C@@H](CC(N)=O)C(=O)N2CCC[C@H]2C(=O)N[C@@H](CCO)C(=O)N[C@@H](CCO)C(=O)N2C[C@H](O)C[C@H]2C(=O)N[C@@H](Cc2c[nH]c3ccccc23)C(=O)N[C@@H](CO)C(=O)N[C@@H](Cc2c[nH]c3ccccc23)C(=O)N1C (stereo partly drawn) [Example 10043] ({CH2CO}-Y[NMeA]NP[hSer][hSer][Hyp]WSW[NMeNle][NMeNle]R[ξC]G-NH2; thioether N-14) | 1 to 9.9 nM
CCCC[C@H]1C(=O)N2CCC[C@@H]2C(=O)N[C@@H](CC(=O)O)C(=O)N[C@@H](C(C)C)C(=O)N(C)[C@@H](Cc2ccccc2)C(=O)N[C@@H](CCC(=O)O)C(=O)N2CCOC[C@@H]2C(=O)N[C@@H](Cc2c[nH]c3ccccc23)C(=O)N[C@@H](Cc2ccc(O)cc2)C(=O)N[C@@H](CN)C(=O)N[C@H](C(=O)NCC(N)=O)CSCC(=O)N[C@@H](Cc2cc(F)c(F)c(F)c2)C(=O)N(C)[C@@H](Cc2ccc(F)cc2)C(=O)N1C [Example 10606] ({CH2CO}-[Phe(3,4,5-F3)][NMePhe(4-F)][NMeNle][dP]DV[NMeF]E[X1]WY[Dap]CG-NH2; thioether N-13) | 1 to 9.9 nM
CCCC[C@H]1C(=O)N(C)CC(=O)N[C@@H](CC(=O)O)C(=O)N[C@@H](C(C)C)C(=O)N(C)[C@@H](Cc2ccccc2)C(=O)N[C@@H](Cc2ccc(O)cc2)C(=O)N(C)CC(=O)NC(C)(Cc2c[nH]c3ccccc23)C(=O)N[C@@H](Cc2ccc(O)cc2)C(=O)N[C@@H](CC(C)C)C(=O)N[C@H](C(=O)NCC(N)=O)CSCC(=O)N[C@@H](Cc2ccccc2)C(=O)N(C)[C@@H](Cc2ccccc2)C(=O)N1C (single isomer, unassigned) [Example 3640-A] | 100 to 990 nM
CCCC[C@H]1C(=O)N(C)[C@@H](CCCC)C(=O)N[C@@H](CCCNC(=N)N)C(=O)N[C@H](C(=O)NCC(N)=O)CSCC(=O)N[C@@H](Cc2ccc(C#N)cc2)C(=O)N(C)[C@@H](C)C(=O)N[C@@H](CC(N)=O)C(=O)N2CCC[C@H]2C(=O)N[C@@H](Cc2cnc[nH]2)C(=O)N[C@@H](CCC(=O)O)C(=O)N2C[C@H](O)C[C@H]2C(=O)N[C@@H](Cc2c[nH]c3ccccc23)C(=O)N[C@@H](CO)C(=O)N[C@@H](Cc2c[nH]c3ccccc23)C(=O)N1C [Example 7078] ({CH2CO}-[Phe(4-CN)][NMeA]NPHE[Hyp]WSW[NMeNle][NMeNle]RCG-NH2; thioether N-14) | 10 to 99.9 nM
